Test results: patent US7846928B2, “Substituted pyrazolopyridines and salts thereof, pharmaceutical compositions comprising same, methods of preparing same and uses of same” (Bayer Schering Pharma AG, priority 2006, dated 2010)

Target: Tie2 (Homo sapiens, UniProt Q02763)
Test: Tie2 ELISA assay (assay 1): cellular Tie2 autophosphorylation in Tie2-transfected CHO cells stimulated by angiopoietin-2
Format: cell-based
Parameters: expressed in transfected cells; host or cells: CHO (DHFR-deficient), stably transfected: CHO Tie2/DHFR
Conditions: CHO Tie2/DHFR cells, Ang2 stimulated, Tie2 autophosphorylation sandwich-ELISA; pIC50 = -log IC50 molar; read-out: Tie 2 activity (assay 1)
Method: Cellular activity of compounds of the present invention as inhibitors of Tie2 kinase activity was measured employing a Tie2 ELISA assay as described in the following paragraphs. Herein CHO cell-cultures, which are stably transfected by known techniques with Tie2 using DHFR deficiency as selection marker, are stimulated by angiopoietin-2. The specific autophosphorylation of Tie2 receptors is quantified with a sandwich-ELISA using anti-Tie2 antibodies for catch and anti-phosphotyrosine antibodies coupled to HRP for detection.
• 96 well tissue culture plate, sterile, Greiner • 96 well FluoroNunc plate MaxiSorp Surface C, Nunc • 96 well plate polypropylene for compound dilution in DMSO • CHO Tie2/DHFR (transfected cells) • PBS−; PBS++, DMSO • MEM alpha Medium with Glutamax-I without Ribonucleosides and • Deoxyribonucleosides (Gibco #32561-029) • with 10% FCS after dialysis! and 1% PenStrep • Lysis buffer: 1 Tablet “Complete” protease inhibitor • 1 cap Vanadate (1 mL>40 mg/mL; working solution 2 mM) • ad 50 mL with Duschl-Puffer • pH 7.6 • Anti-Tie2-antibody 1:425 in Coating Buffer pH 9.6 • Stock solution: 1.275 mg/mL>working: 3 μg/mL • PBST: 2 bottles PBS(10×)+10 ml Tween, fill up with VE-water • RotiBlock 1:10 in VE-water • Anti-Phosphotyrosine HRP-Conjugated 1:10000 in 3% TopBlock • 3% TopBlock in PBST • BM Chemiluminescence ELISA Substrate (POD) • solution B1:100 solution A • SF9 cell culture medium • Ang2-Fc in SF9 cell culture medium Cell Experiment: • Dispense 5×10^4 cells/well/98 μL in 96 well tissue culture plate • Incubate at 37° C./5% CO2 • After 24 h add compounds according to desired concentrations • Add also to control and stimulated values without compounds 2 μL DMSO • And mix for a few min at room temperature • Add 100 μL Ang2-Fc to all wells except control, which receives insect medium • Incubate 20 min at 37° C. • Wash 3× with PBS++ • Add 100 μl Lysis buffer/well and shake a couple of min at room temperature • Store lysates at 20° C. before utilizing for the ELISA Performance of Sandwich-ELISA • Coat 96 well FluoroNunc Plate MaxiSorp Surface C with anti-Tie2 mAb • 1:425 in Coating buffer pH 9.6; 100 μL/well overnight at 4° C. • Wash 2× with PBST • Block plates with 250 μL/well RotiBlock 1:10 in VE-water • Incubate for 2 h at room temperature or overnight at 4° C. shaking • Wash 2× in PBST • Add thawed lysates to wells and incubate overnight shaking at 4° C. • Wash 2× with PBST • Add 100 μL/well anti-Phosphotyrosine HRP-Conjugated 1:10000 in 3% • TopBlock (3% TopBlock in PBST) and incubate overnight under shaking • Wash 6× with PBST • Add 100 μL/well BM Chemiluminescence ELISA Substrate (POD) • solutions 1 und 2 (1:100) • Determine luminescence with the LumiCount. Assay 2: Tie-2-Kinase HTRF-Assay without Kinase Preactivation

Sequence of Tie2 (Q02763 23-1124): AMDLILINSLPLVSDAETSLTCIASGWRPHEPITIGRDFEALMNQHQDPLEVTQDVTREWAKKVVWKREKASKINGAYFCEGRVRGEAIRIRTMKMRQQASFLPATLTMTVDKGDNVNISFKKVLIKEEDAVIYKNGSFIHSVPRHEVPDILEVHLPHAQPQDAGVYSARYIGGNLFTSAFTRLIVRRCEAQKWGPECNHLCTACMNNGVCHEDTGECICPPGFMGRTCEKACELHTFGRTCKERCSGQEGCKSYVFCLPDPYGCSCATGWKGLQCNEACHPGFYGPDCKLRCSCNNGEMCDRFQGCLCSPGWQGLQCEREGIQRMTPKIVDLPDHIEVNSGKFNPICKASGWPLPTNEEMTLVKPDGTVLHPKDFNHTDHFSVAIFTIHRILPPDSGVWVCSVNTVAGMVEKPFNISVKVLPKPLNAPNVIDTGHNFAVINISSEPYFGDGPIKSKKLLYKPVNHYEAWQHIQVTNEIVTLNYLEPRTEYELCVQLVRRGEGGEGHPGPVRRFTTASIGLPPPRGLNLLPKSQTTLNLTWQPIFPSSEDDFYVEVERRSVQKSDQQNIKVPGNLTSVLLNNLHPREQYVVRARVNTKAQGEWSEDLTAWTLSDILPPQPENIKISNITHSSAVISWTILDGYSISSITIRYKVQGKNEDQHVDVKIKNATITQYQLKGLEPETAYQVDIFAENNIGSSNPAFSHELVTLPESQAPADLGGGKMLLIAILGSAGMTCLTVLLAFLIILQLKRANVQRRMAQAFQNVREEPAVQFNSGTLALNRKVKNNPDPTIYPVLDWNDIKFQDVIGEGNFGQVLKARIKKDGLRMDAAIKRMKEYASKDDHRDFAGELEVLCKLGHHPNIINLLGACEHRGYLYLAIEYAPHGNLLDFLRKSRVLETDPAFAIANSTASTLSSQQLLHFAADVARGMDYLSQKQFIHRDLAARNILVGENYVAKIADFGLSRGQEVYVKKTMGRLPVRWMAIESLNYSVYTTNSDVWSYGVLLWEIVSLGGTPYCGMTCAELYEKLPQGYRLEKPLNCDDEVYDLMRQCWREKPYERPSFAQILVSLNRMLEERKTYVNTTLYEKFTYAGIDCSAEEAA

SMILES	IC50
CC(C)c1cc(-c2ccc(NC(=O)Nc3cccc(C(F)(F)F)c3)cc2)c2cnn(C)c2n1 [1.3, 1-[4-(6-Isopropyl-1-methyl-1H-pyrazolo[3,4-b]pyridin-4-yl)-phenyl]-3-(3-trifluoromethyl-phenyl)-urea]	< 501 nM
CN1CCN(Cc2ccc(NC(=O)Nc3ccc(-c4cc(C(C)(C)C)nc5[nH]ncc45)cc3)cc2C(F)(F)F)CC1 [1.15, 1-[4-(6-tert-Butyl-1H-pyrazolo[3,4-b]pyridin-4-yl)-phenyl]-3-[4-(4-methyl-piperazin-1-ylmethyl)-3-trifluoromethyl-phenyl]-urea]	< 501 nM
Cn1ncc2c(-c3ccc(NC(=O)Nc4cc(C(F)(F)F)ccc4F)cc3)ccnc21 [1.8, 1-(2-Fluoro-5-trifluoromethyl-phenyl)-3-[4-(1-methyl-1H-pyrazolo[3,4-b]-pyridin-4-yl)-phenyl]-urea]	< 501 nM
Cn1ncc2c(-c3ccc(NC(=O)Nc4cccc(C(F)(F)F)c4)cc3)ccnc21 [1.4, 1-[4-(1-Methyl-1H-pyrazolo[3,4-b]pyridin-4-yl)-phenyl]-3-(3-trifluoromethyl-phenyl)-urea]	< 501 nM
Cc1cccc(NC(=O)Nc2ccc(-c3cc(C(C)(C)C)nc4[nH]ncc34)cc2)c1 [1.11, 1-[4-(6-tert-Butyl-1H-pyrazolo[3,4-b]pyridin-4-yl)-phenyl]-3-m-tolyl-urea]	501 to 1000 nM
CCc1cccc(NC(=O)Nc2ccc(-c3cc(C(C)(C)C)nc4[nH]ncc34)cc2)c1 [1.1, 1-[4-(6-tert-Butyl-1H-pyrazolo[3,4-b]pyridin-4-yl)-phenyl]-3-(3-ethylphenyl)-urea]	< 501 nM
CN1CCN(Cc2ccc(NC(=O)Nc3ccc(-c4ccnc5[nH]ncc45)cc3)cc2C(F)(F)F)CC1 [1.33, 1-[4-(4-Methyl-piperazin-1-yl-methyl)-3-trifluoromethyl-phenyl]-3-[4-(1H-pyrazolo[3,4-b]pyridin-4-yl)-phenyl]-urea]	< 501 nM
CN(C)C(=O)C1(c2cc(-c3ccc(NC(=O)Nc4cccc(C(F)(F)F)c4)cc3)c3cnn(C)c3n2)CC1 [1.26, 1-(1-Methyl-4-{4-[3-(3-trifluoromethyl-phenyl)-ureido]-phenyl}-1H-pyrazolo[3,4-b]pyridin-6-yl)-cyclopropane-carboxylic acid dimethylamide]	< 501 nM
Cc1ccc(F)c(NC(=O)Nc2ccc(-c3cc(C4(C(=O)N(C)C)CC4)nc4c3cnn4C)cc2)c1 [1.29, 1-(4-{4-[3-(2-Fluoro-5-methyl-phenyl)-ureido]-phenyl}-1-methyl-1H-pyrazolo[3,4-b]pyridin-6-yl)-cyclopropane-carboxylic acid dimethylamide]	< 501 nM
O=C(Nc1ccc(-c2ccnc3[nH]ncc23)cc1)Nc1cccc(C(F)(F)F)c1 [1.20, 1-[4-(1H-Pyrazolo[3,4-b]pyridin-4-yl)-phenyl]-3-(3-trifluoromethyl-phenyl)-urea]	< 501 nM
Cc1ccc(F)c(NC(=O)Nc2ccc(-c3ccnc4c3cnn4C)cc2)c1 [1.7, 1-(2-Fluoro-5-methyl-phenyl)-3-[4-(1-methyl-1H-pyrazolo[3,4-b]pyridin-4-yl)-phenyl]-urea]	< 501 nM
CC(C)c1cc(-c2ccc(NC(=O)Nc3cccc(C(F)(F)F)c3)cc2)c2cn[nH]c2n1 [1.2, 1-[4-(6-Isopropyl-1H-pyrazolo[3,4-b]pyridin-4-yl)-phenyl]-3-(3-trifluoromethyl-phenyl)-urea]	< 501 nM
CN1CCN(Cc2ccc(NC(=O)Nc3ccc(-c4ccnc5c4cnn5C)cc3)cc2C(F)(F)F)CC1 [1.24, 1-[4-(4-Methyl-piperazin-1-ylmethyl)-3-trifluoromethyl-phenyl]-3-[4-(1-methyl-1H-pyrazolo[3,4-b]pyridin-4-yl)-phenyl]-urea]	< 501 nM
Cc1cc(-c2ccc(NC(=O)Nc3cccc(C(F)(F)F)c3)cc2)c2cn[nH]c2n1 [1.18, 1-[4-(6-Methyl-1H-pyrazolo[3,4-b]pyridin-4-yl)-phenyl]-3-(3-trifluoromethyl-phenyl)-urea]	< 501 nM
Cc1ccc(F)c(NC(=O)Nc2ccc(-c3ccnc4[nH]ncc34)cc2)c1 [1.22, 1-(2-Fluoro-5-methyl-phenyl)-3-[4-(1H-pyrazolo[3,4-b]pyridin-4-yl)-phenyl]-urea]	< 501 nM
Cn1ncc2c(-c3ccc(NC(=O)Nc4cccc(C(F)(F)F)c4)cc3)cc(C3CCCCC3)nc21 [1.38, 1-[4-(6-Cyclohexyl-1-methyl-1H-pyrazolo[3,4-b]pyridin-4-yl)-phenyl]-3-(3-trifluoromethyl-phenyl)-urea]	< 501 nM
Cn1ncc2c(-c3ccc(NC(=O)Nc4cccc(C(F)(F)F)c4)cc3)cc(C3CCC3)nc21 [1.37, 1-[4-(6-Cyclobutyl-1-methyl-1H-pyrazolo[3,4-b]pyridin-4-yl)-phenyl]-3-(3-trifluoromethyl-phenyl)-urea]	< 501 nM
CN1CCC(Oc2ccc(NC(=O)Nc3ccc(-c4ccnc5c4cnn5C)cc3)cc2C(F)(F)F)CC1 [1.23, 1-[4-(1-Methyl-piperidin-4-yloxy)-3-trifluoromethyl-phenyl]-3-[4-(1-methyl-1H-pyrazolo[3,4-b]pyridin-4-yl)-phenyl]-urea]	< 501 nM

The remaining lines, values ahead:

IC50	SMILES
< 501 nM	CCc1cccc(NC(=O)Nc2ccc(-c3cc(CN4CCOCC4)nc4c3cnn4C)cc2)c1 [3.4, 1-(3-Ethyl-phenyl)-3-[4-(1-methyl-6-morpholin-4-ylmethyl-1H-pyrazolo[3,4-b]pyridin-4-yl)-phenyl]-urea]
< 501 nM	Cc1cc(-c2ccc(NC(=O)Nc3cc(F)cc(C(F)(F)F)c3)cc2)c2cnn(C)c2n1 [2.4, 1-[4-(1,6-Dimethyl-1H-pyrazolo[3,4-b]pyridin-4-yl)-phenyl]-3-(3-fluoro-5-trifluoromethyl-phenyl)-urea]
< 501 nM	Cn1ncc2c(-c3ccc(NC(=O)Nc4cccc(C(F)(F)F)c4)cc3)cc(CN3CCOCC3)nc21 [3.2, 1-[4-(1-Methyl-6-morpholin-4-ylmethyl-1H-pyrazolo[3,4-b]pyridin-4-yl)-phenyl]-3-(3-trifluoromethyl-phenyl)-urea]
< 501 nM	COc1ccc(C(F)(F)F)cc1NC(=O)Nc1ccc(-c2cc(C)nc3c2cnn3C)cc1 [2.7, 1-[4-(1,6-Dimethyl-1H-pyrazolo[3,4-b]pyridin-4-yl)-phenyl]-3-(2-methoxy-5-trifluoromethyl-phenyl)-urea]
< 501 nM	Cc1ccc(F)c(NC(=O)Nc2ccc(-c3cc(CN4CCOCC4)nc4c3cnn4C)cc2)c1 [3.5, 1-(2-Fluoro-5-methyl-phenyl)-3-[4-(1-methyl-6-morpholin-4-ylmethyl-1H-pyrazolo[3,4-b]pyridin-4-yl)-phenyl]-urea]
501 to 1000 nM	Cc1cc(-c2ccc(NC(=O)Nc3ccc(F)c(C(F)(F)F)c3)cc2)c2cnn(C)c2n1 [2.5, 1-[4-(1,6-Dimethyl-1H-pyrazolo[3,4-b]pyridin-4-yl)-phenyl]-3-(4-fluoro-3-trifluoromethyl-phenyl)-urea]
